Here are results for 23 molecules from patent publication US20220411419A1, “SMALL MOLECULE MODULATORS OF MHC-I” (RetroVirox, Inc., priority 2018, published 2022).

Molecules are shown by their SMILES.

Series [1] deals with downmodulation of MHC-I molecules expressed on the surface of HIV infected SupT1 cells. The series is described as follows: cells. The note with it: for EC50: Human immunodeficiency virus 1, SUP-T1, read-out: EC50 for inhibition of MHC-I downmodulation utilizing the R1 parameter; for activity at 100 µM: Human immunodeficiency virus 1, SUP-T1, read-out: R1 @ 100 μM (R1 value for MHC-I downmodulation as % of the vehicle control).

The nature of a further series: in vitro. The note with it: human, uninfected SupT1 cells.

Regarding `CC1(C)Cc2cccc(OCC(=O)Nc3nc4c(Br)cccc4s3)c2O1` [Compound 1, N-(4-bromobenzo[d]thiazol-2-yl)-2-((2,2-dimethyl-2,3-dihydrobenzofuran-7-yl)oxy)acetamide], the EC50 in series [1] stood at 120 nM. This molecule also registered a cytotoxic concentration (CC50) at 48 h in the series “in vitro” above 90 µM.

Regarding `COc1ccccc1OCC(=O)Nc1nc2c(Cl)cccc2s1` [Compound 188, N-(4-Chlorobenzo[d]thiazol-2-yl)-2-(2-methoxyphenoxy)acetamide], in series [1], the EC50 is at least 10000 nM and the activity at 100 µM came to 37%. In “in vitro”, the CC50 was above 100 µM and the CC50 at 48 h is above 100 µM.

Consider `COc1c(OCC(=O)N(C)c2nc3c(s2)CCCC3)cccc1C1CC1` [Compound 120, 2-(3-Cyclopropyl-2-methoxyphenoxy)-N-methyl-N-(4,5,6,7-tetrahydrobenzo [d]thiazol-2-yl)acetamide], for which the EC50 in series [1] came to 4800 nM. In “in vitro”, this molecule gave a CC50 at 48 h above 125 µM.

Consider `COc1ccccc1OCC(=O)Nc1nc2c(C)cccc2s1` [Compound 189, 2-(2-Methoxyphenoxy)-N-(4-methylbenzo[d]thiazol-2-yl)acetamide], for which, in series [1], the EC50 is above 25000 nM and the activity at 100 µM turned out to be 39%. Besides, in “in vitro”, the CC50 was above 100 µM and the CC50 at 48 h was above 100 µM.

Consider `COc1ccc(C)cc1OCC(=O)N(C)c1nc2c(s1)CCCC2` [Compound 122, 2-(2-Methoxy-5-methylphenoxy)-N-methyl-N-(4,5,6,7-tetrahydrobenzo[d]thiazol-2-yl)acetamide], for which the concentration for a half-maximal effect (EC50) in series [1] turned out to be 5000 nM. Besides, the CC50 at 48 h in “in vitro” was above 125 µM.

On to `CC1(C)Cc2cccc(OCC(=O)Nc3ccc(C(F)(F)F)nc3)c2O1` [Compound 12, 2-((2,2-Dimethyl-2,3-dihydrobenzofuran-7-yl)oxy)-N-(6-(trifluoromethyl)pyridin-3-yl)acetamide], for which, in series [1], the EC50 was above 25000 nM and the activity at 100 µM is 51%. In addition, in the series “in vitro”, the CC50 was above 100 µM and the CC50 at 48 h was above 100 µM.

Take `Cc1csc(NC(=O)COc2cccc3c2OC(C)(C)C3)n1` [Compound 181, 2-((2,2-Dimethyl-2,3-dihydrobenzofuran-7-yl)oxy)-N-(4-methylthiazol-2-yl) acetamide]: the EC50 in series [1] came out at 620 nM. Moreover, in the series “in vitro”, the CC50 at 48 h was above 90 µM.

For `Cc1csc(N(Cc2ncccn2)C(=O)COc2cccc3c2OC(C)(C)C3)n1` [Compound 43, 2-((2,2-Dimethyl-2,3-dihydrobenzofuran-7-yl)oxy)-N-(4-methylthiazol-2-yl)-N-(pyrimidin-2-ylmethyl)acetamide], in series [1], the EC50 was determined as 710 nM. In the series “in vitro”, this molecule had a CC50 at 48 h above 100 µM.

As for `CC1(C)Cc2cccc(OC(C)(C)C(=O)Nc3nc4ccccc4s3)c2O1` [Compound 20, N-(Benzo[d]thiazol-2-yl)-2-((2,2-dimethyl-2,3-dihydrobenzofuran-7-yl)oxy)-2-methylpropanamide], in series [1], the EC50 was above 30000 nM and the activity at 100 µM was 56%. Further, in the series “in vitro”, the 50% cytotoxic concentration (CC50) was above 90 µM and the CC50 at 48 h is above 90 µM.

In the case of `CC1(C)Cc2cccc(OCC(=O)Nc3ccc(Br)cn3)c2O1` [Compound 66, N-(5-Bromopyridin-2-yl)-2-((2,2-dimethyl-2,3-dihydrobenzofuran-7-yl)oxy) acetamide], the EC50 in series [1] worked out at 3400 nM. In addition, the CC50 at 48 h in “in vitro” is above 125 µM.

Consider `Cc1csc(N(Cc2ccccc2)C(=O)COc2ccccc2OCc2ccccc2)n1` [Compound 142, N-Benzyl-2-(2-(benzyloxy)phenoxy)-N-(4-methylthiazol-2-yl)acetamide], for which the EC50 in series [1] came to 5500 nM. The CC50 at 48 h in “in vitro” was above 125 µM.

`Cc1csc(N(Cc2cccnc2)C(=O)COc2cccc3c2OC(C)(C)C3)n1` [Compound 34, 2-((2,2-Dimethyl-2,3-dihydrobenzofuran-7-yl)oxy)-N-(4-methylthiazol-2-yl)-N-(pyridin-3-ylmethyl)acetamide]: in series [1], the EC50 turned out to be 1400 nM. Besides, the midpoint of cytotoxicity in “in vitro”, the CC50 at 48 h, lay at 12 µM.

For `Cc1csc(N(C(=O)COc2cccc3c2OC(C)(C)C3)c2ccccc2C)n1` [Compound 60, 2-((2,2-Dimethyl-2,3-dihydrobenzofuran-7-yl)oxy)-N-(4-methylthiazol-2-yl)-N-(o-tolyl)acetamide], in series [1], the EC50 is 3800 nM. Also, the CC50 at 48 h in “in vitro” was above 100 µM.

Regarding `CCc1ccc(NC(=O)COc2cccc3c2OC(C)(C)C3)nn1` [Compound 85, 2-((2,2-Dimethyl-2,3-dihydrobenzofuran-7-yl)oxy)-N-(6-ethylpyridazin-3-yl)acetamide], the EC50 in series [1] was found to be 380 nM. Further, the cytotoxic concentration (CC50) at 48 h in “in vitro” is above 100 µM.

Regarding `CC1(C)Cc2cccc(OCC(=O)Nc3nc4ccccc4s3)c2O1` [Compound 143, N-(benzo[d]thiazol-2-yl)-2-((2,2-dimethyl-2,3-dihydrobenzofuran-7-yl)oxy)acetamide], the EC50 in series [1] turned out to be 410 nM. The molecule also returned a CC50 at 48 h in “in vitro” above 100 µM.

As to `CC1(C)Cc2cccc(OCC(=O)N(c3ccccc3)c3nc4ccccc4s3)c2O1` [Compound 98, N-(Benzo[d]thiazol-2-yl)-2-((2,2-dimethyl-2,3-dihydrobenzofuran-7-yl)oxy)-N-phenylacetamide], the EC50 in series [1] came out at 29000 nM. Besides, the CC50 at 48 h in the series “in vitro” is above 90 µM.

As for `CC1(C)Cc2cccc(CCC(=O)Nc3nc4c(s3)CCCC4)c2O1` [Compound 105, 3-(2,2-Dimethyl-2,3-dihydrobenzofuran-7-yl)-N-(4,5,6,7-tetrahydrobenzo[d]thiazol-2-yl)propanamide], the EC50 in series [1] stood at 390 nM. Moreover, the CC50 at 48 h in the series “in vitro” is above 125 µM.

With `CC(C)c1ccc(NC(=O)COc2cccc3c2OC(C)(C)C3)nn1` [Compound 87, 2-((2,2-Dimethyl-2,3-dihydrobenzofuran-7-yl)oxy)-N-(6-isopropylpyridazin-3-yl)acetamide], the EC50 in series [1] came to 580 nM. The same molecule came in with a CC50 at 48 h in the series “in vitro” above 100 µM.

Regarding `Cc1ccnc(NC(=O)COc2cccc3c2OC(C)(C)C3)n1` [Compound 179, 2-((2,2-Dimethyl-2,3-dihydrobenzofuran-7-yl)oxy)-N-(4-methylpyrimidin-2-yl)acetamide], the EC50 in series [1] was above 25000 nM. The CC50 at 48 h in the series “in vitro” was above 100 µM.

Regarding `CC1(C)Cc2cccc(OCC(=O)Nc3nc4c(F)cccc4s3)c2O1` [Compound 147, 2-((2,2-Dimethyl-2,3-dihydrobenzofuran-7-yl)oxy)-N-(4-fluorobenzo[d]thiazol-2-yl)acetamide], in series [1], the EC50 amounted to 90 nM. The molecule also showed a CC50 at 48 h in the series “in vitro” above 90 µM.

As for `O=C(COc1cccc2c1OCCO2)Nc1nc2ccccc2s1` [Compound 176, N-(Benzo[d]thiazol-2-yl)-2-((2,3-dihydrobenzo[b][1,4]dioxin-5-yl)oxy) acetamide], the EC50 in series [1] was 8900 nM. The molecule further returned a CC50 at 48 h in “in vitro” above 100 µM.

As to `CC1(C)Cc2cccc(OCC(=O)Nc3ccc4c(n3)CCC4)c2O1` [Compound 163, N-(6,7-dihydro-5H-cyclopenta[b]pyridin-2-yl)-2-((2,2-dimethyl-2,3-dihydrobenzofuran-7-yl)oxy)acetamide], in series [1], the EC50 worked out at 370 nM. In addition, in the series “in vitro”, the CC50 at 48 h is above 125 µM.

Consider `Cc1csc(N(C(=O)COc2cccc3c2OC(C)(C)C3)c2ccc(F)cc2)n1` [Compound 58, 2-((2,2-Dimethyl-2,3-dihydrobenzofuran-7-yl)oxy)-N-(4-fluorophenyl)-N-(4-methylthiazol-2-yl)acetamide], for which the EC50 in series [1] is 290 nM. Also, the CC50 at 48 h in “in vitro” was above 100 µM.
